Where two headings read alike, the source gives them in different places.
What was measured:
MDA-MB-231 cells = assay: Anchorage-independent and dependent cell growth (MTT), MDA-MB-231; format: cell-based; settings: NA = No Activity
Method: (§1) MDA-MB-231 cells were cultured for 48 hrs in complete DMEM with 10% FBS±compound (0/0.1/0.3/1/3/10/100 μM) in cell-culture-treated plates and viable cells quantitated using MTT. Relative % viability (viability after any treatment÷viability of untreated cells×100) was plotted as a function of Log [M] compound, and IC50 values calculated using GraphPad.
as §1, with “72” for “48”, “cell-culture-treated ultra-low attachment 96-well” for “cell-culture-treated”
(§2) Anchorage-independent and dependent cell growth. Cells were cultured in triplicates in complete DMEM±drug, in ultra-low attachment 96 well plates for 72 hrs or cell-culture treated plates for 48 hrs and viable cells were quantitated using MTT. Optical density (OD) was measured at 590 nm using a 96-well multi-scanner (Synergy H1 microplate reader, BioTek Inc, VT, USA). Relative % viability (viability after any treatment÷viability of untreated cells×100) was plotted along Y-axis. At least 2 replicates experiments were performed and were used for IC50 calculation using GraphPad software.

STAT3 (aa 127-722) = target: T1, STAT3 (aa 127-722) (Homo sapiens, UniProt P40763); assay: SPR assay of STAT3 binding to immobilized EGFR pY1068 phosphododecapeptide; settings: for inhibition at 10 µM / inhibition at 100 µM / inhibition of STAT3 binding to EGFR pY-peptide: SPR; for inhibition at 10 µM / inhibition at 100 µM: read-out: inhibition of STAT3 binding to EGFR pY-peptide; for % of max binding at 10 μm: pEGFRp-STAT3 binding (SPR) at pH 8, compound 10 μm; for % of max binding at 100 μm: pEGFRp-STAT3 binding (SPR) at pH 8, compound 100 μm; for inhibition at 100 µM / inhibition of STAT3 binding to EGFR pY-peptide: 100 μM
T1 construct: STAT3 (aa 127-722) at a concentration of 200 nM
T1 sequence (P40763 127-722 isoform P40763-3 limits assumed, species assumed): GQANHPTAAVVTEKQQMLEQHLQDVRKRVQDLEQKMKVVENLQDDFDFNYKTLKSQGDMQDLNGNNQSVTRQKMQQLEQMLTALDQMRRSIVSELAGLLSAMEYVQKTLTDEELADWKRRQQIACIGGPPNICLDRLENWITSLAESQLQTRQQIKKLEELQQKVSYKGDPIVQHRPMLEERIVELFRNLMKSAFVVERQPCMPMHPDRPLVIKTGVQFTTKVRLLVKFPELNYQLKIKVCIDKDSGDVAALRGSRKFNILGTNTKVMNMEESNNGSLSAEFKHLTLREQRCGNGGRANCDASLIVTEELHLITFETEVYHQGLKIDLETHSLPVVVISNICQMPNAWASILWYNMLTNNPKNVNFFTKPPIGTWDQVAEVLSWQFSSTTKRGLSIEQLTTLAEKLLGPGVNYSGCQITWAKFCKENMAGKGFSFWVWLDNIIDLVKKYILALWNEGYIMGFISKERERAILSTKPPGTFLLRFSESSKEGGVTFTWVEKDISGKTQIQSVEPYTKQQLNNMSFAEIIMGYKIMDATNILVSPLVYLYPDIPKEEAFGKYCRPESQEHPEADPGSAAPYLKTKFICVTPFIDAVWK
Method: Surface plasmon resonance (SPR) assay of STAT3 binding pY-peptide. STAT3 (aa 127-722) at a concentration of 200 nM in 20 mM Tris buffer (pH 8) was pre-incubated without or with compounds prior to injection onto an SA chip immobilized with phosphorylated and control non-phosphorylated biotinylated EGFR derived dodecapeptides based on sequence surrounding Y1068 (Shao et al., 2004), on a Biacore 3000 biosensor (Biacore inc., Piscataway N.J.) and analyzed as described (Bharadwaj et al., 2016).
Surface Plasmon Resonance (SPR) was performed on the 24 compounds to determine their ability to block binding of purified STAT3 to an immobilized phosphododecapeptide based on EGFR Y1068 (EGFR pY-peptide), as described (Xu et al., 2009).

MDA-MB-468 cells = assay: Anchorage-independent and dependent cell growth (MTT), MDA-MB-468; format: cell-based; settings: NA = No Activity
Method: as §1, with “MDA-MB-468” for “MDA-MB-231”
as §1, with “MDA-MB-468” for “MDA-MB-231”, “72” for “48”, “cell-culture-treated ultra-low attachment 96-well” for “cell-culture-treated”, “treatment viability” for “treatment÷viability”
as §2

G-CSF-stimulated pSTAT3 = assay: Inhibition of G-CSF-stimulated pSTAT3 in Kasumi-1 cells (Luminex, pSTAT3/GAPDH); format: cell-based; settings: for activity at 10 µM: Kasumi 1, read-out: % of Control Stimulated pSTAT3; for activity at 10 µM / % of Control Stimulated pSTAT3: single concentration of 10 μM, G-CSF 100 ng/ml, pSTAT3/GAPDH relative to DMSO treated cells; for inhibition at 10 µM: Kasumi-1 cells, read-out: inhibition of G-CSF-induced pY-STAT3
Method: […] Total protein was assayed for pSTAT3 and GAPDH levels by Luminex. GAPDH-normalized pSTAT3 values were divided by the same for untreated cells and expressed as percentage. These values were plotted as a function of Log [M] compound, and IC50 calculated using GraphPad. Data from representative experiments from at least two repeats is shown.
Luminex bead-based assay. Luminex bead-based assays were used to determine levels of pSTAT3, pSTAT1, pSTAT5, and GAPDH, as described (Bharadwaj et al., 2015). […]

[1] = Homo sapiens, MDA-MB-231, 48 h, anchorage dependent, cell-culture treated plates, 48 hrs, read-out: Growth AD IC50 231
[2] = Homo sapiens, MDA-MB-231, 72 h, anchorage independent, ultra-low attachment plates, 72 hrs, read-out: Growth AI IC50 231
[3] = anchorage dependent, cell-culture treated plates, 48 hrs, read-out: Growth AD IC50 231
[4] = Homo sapiens, MDA-MB-468, 48 h, anchorage dependent, cell-culture treated plates, 48 hrs, read-out: Growth AD IC50 468
[5] = Homo sapiens, MDA-MB-468, 72 h, anchorage independent, ultra-low attachment plates, 72 hrs, read-out: Growth AI IC50 468
[6] = anchorage dependent, cell-culture treated plates, 48 hrs, read-out: Growth AD IC50 468
[7] = anchorage dependent, cell-culture treated plates, 48 hrs
[8] = anchorage independent, ultra-low attachment plates, 72 hrs
[9] = Kasumi1 cells, G-CSF induced pSTAT3/GAPDH by Luminex

SMILES | IC50 (MDA-MB-231 cells; [1]) [µM] | IC50 (MDA-MB-231 cells; [2]) [µM] | IC50 (MDA-MB-231 cells; [3]) [µM] | inhibition at 10 µM (STAT3 (aa 127-722)) [%] | inhibition at 100 µM (STAT3 (aa 127-722)) [%] | % of max binding at 10 μm (STAT3 (aa 127-722)) [%] | % of max binding at 100 μm (STAT3 (aa 127-722)) [%] | IC50 (MDA-MB-468 cells; [4]) [µM] | IC50 (MDA-MB-468 cells; [5]) [µM] | IC50 (MDA-MB-468 cells; [6]) [µM] | activity at 10 µM (G-CSF-stimulated pSTAT3; Homo sapiens, Kasumi1 cells) [%] | inhibition at 10 µM (G-CSF-stimulated pSTAT3; Homo sapiens) [%] | other results
Cc1cc(NS(=O)(=O)c2ccc(NC(=O)COc3ccc(C(C)(C)c4ccccc4)cc3)cc2)nc(C)n1 [SPEC-106, N-(4-{[(2,6-dimethyl-4-pyrimidinyl)amino]sulfonyl}phenyl)-2-[4-(1-methyl-1-phenylethyl)phenoxy]acetamide] | 25.6 to 65.2 | 38.9 | 39 | 29 to 71 | 67 to 93 | 68.9 | 20.4 | 25.6 to 65.2 | 34.9 ± 1.3 | 44.7 | 1 | 20 to 80 | –
O=C(O)COc1c(Br)cc(/C=C2\SC(=O)N(CC(=O)N3CCN(c4ccccc4)CC3)C2=O)cc1Br [SPEC-85, [2,6-dibromo-4-({2,4-dioxo-3-[2-oxo-2-(4-phenyl-1-piperazinyl)ethyl]-1,3-thiazolidin-5-ylidene}methyl)phenoxy]acetic acid] | – | – | – | 29 to 71 | – | 67.3 | 9.5 | – | – | – | 2 | 20 to 80 | Growth AD IC50 231 (MDA-MB-231 cells; [7]): no activity; Growth AI IC50 231 (MDA-MB-231 cells; [8]): no activity; inhibition of STAT3 binding to EGFR pY-peptide (STAT3 (aa 127-722)): 95%; Growth AD IC50 468 (MDA-MB-468 cells; [7]): no activity; Growth AI IC50 468 (MDA-MB-468 cells; [8]): no activity; IC50 (G-CSF-stimulated pSTAT3; Homo sapiens, Kasumi 1, Kasumi1 cells, G-CSF induced pSTAT3/GAPDH by Luminex): > 100 µM; G-CSF pSTAT3 IC50 (G-CSF-stimulated pSTAT3; [9]): almost no activity
COc1cc(/C=C2/SC(=O)NC2=O)ccc1OCc1ccc(Cl)cc1Cl [SPEC-98] | 25.6 to 65.2 | – | 25.6 ± 3.9 | 29 to 71 | 67 to 93 | 70.4 | 7.8 | 25.6 to 65.2 | 64.1 ± 3.1 | 32.5 ± 3.7 | 20 | 20 to 80 | –
CC(=O)Nc1nc(C)c(-c2csc(Nc3ccccc3)n2)s1 [SPEC-93, N-(2-aniline-4′-methyl-4,5′-bi-1,3-thiazol-2′-yl)acetamide] | – | 15.7 ± 1.3 | – | 29 to 71 | 67 to 93 | 116.8 | 28.3 | – | – | – | 0 | 20 to 80 | –
COc1ccc(Br)cc1/C=C/C(=O)c1ccc(NC(C)=O)cc1 [SPEC-29, N-(4-[(E)-3-(5-bromo-2-methoxyphenyl)prop-2-enoyl)phenyl]acetamide] | 3 to 12.2 | 9.5 ± 4.1 | 3 ± 2.2 | 29 to 71 | 67 to 93 | 69.6 | 22.1 | 2.4 to 12.1 | 1.8 to 11.1 | 2.4 ± 2.5 | 0 | 20 to 80 | inhibition of STAT3 binding to EGFR pY-peptide (STAT3 (aa 127-722)): 78%; IC50 (MDA-MB-468 cells; anchorage independent, ultra-low attachment plates, 72 hrs, read-out: Growth AI IC50 468): 1.8 ± 1.6 µM; IC50 (G-CSF-stimulated pSTAT3; [9]): 2.7 µM
COc1ccc(/C=C/C(=O)c2cc(Br)ccc(=O)c2O)cc1 [SPEC-8, 5-bromo-2-hydroxy-3-[3-(4-methoxyphenyl)acryloyl]-2,4,6-cycloheptatrien-1-one] | – | 26.1 | – | 29 to 71 | 67 to 93 | 49.1 | 30.3 | – | – | – | 0 | 20 to 80 | IC50 (G-CSF-stimulated pSTAT3; [9]): 4.1 µM
CCCCOc1ccc(/C=C2\SC(=O)NC2=O)cc1OCC [SPEC-20] | – | – | – | – | – | 76.7 | 46.1 | – | – | – | – | – | % of Control Stimulated pSTAT3 (G-CSF-stimulated pSTAT3; Kasumi1 cells): 27%
COC(=O)c1ccc(N2C(=O)CC(SC(=NCCc3ccc(S(N)(=O)=O)cc3)Nc3ccccc3)C2=O)cc1 (centres unmarked) [SPEC-100] | – | – | – | – | – | 70.8 | 15.4 | – | – | – | – | – | % of Control Stimulated pSTAT3 (G-CSF-stimulated pSTAT3; Kasumi1 cells): 42%
